The values that follow come from PubChem BioAssay (NCI).

In general, TGI refers to the concentration at which net growth stops. One may read the GI50 as the concentration giving 50% growth inhibition.

Some test systems named below: T-47D breast; SNB-19 CNS; UACC-62 melanoma; MCF7 breast; HS 578T breast; SR leukemia; KM12 colon; HL-60(TB) leukemia; EKVX NSCLC; A549 NSCLC; M14 melanoma; SNB-75 CNS; MDA-N.
Holding throughout (experiment): DTP human tumour cell line panel, 48 h

Where “and” joins values, the source holds several entries; their conditions need not be identical. Identical values can stand only once.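 All cell lines were grown in 96-well plates and treated with compound for 48 hours. The concentration for 50% growth inhibition is given as GI50. TGI is the concentration that stops growth completely.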

Turning to `COc1cc(/C=C2\N=C(c3ccccc3)N(c3ccc(C(=O)c4ccccc4)cc3N3C(=O)/C(=C/c4ccc(O)c(OC)c4)N=C3c3ccccc3)C2=O)ccc1O`, the TGI in the experiment with T-47D breast is 27.3 µM; in the experiment with SNB-19 CNS it was more than 100 µM; in the experiment with UACC-62 melanoma, 30.8 µM; with MCF7 breast it was 20.2 µM; in the experiment with HS 578T breast it was 46.6 µM; with SR leukemia, 33.9 µM. In addition, the concentration for total growth inhibition (TGI) was 22.4 µM in the experiment on KM12 colon; 16 µM in the experiment on HL-60(TB) leukemia; 76.4 µM with EKVX NSCLC; 62.7 µM in the experiment with A549 NSCLC; 25.1 µM in the experiment on M14 melanoma; 54.3 µM in the experiment on SNB-75 CNS. The TGI in the experiment with MDA-N turned out to be 40 µM.

Turning to `CCN(CC)CC[n+]1ccc2c(C)c3[nH]c4ccc(O)cc4c3c(C)c2c1`, the TGI in the experiment on T-47D breast is 12.3 µM; with SNB-19 CNS, 8.76 µM and 10.8 µM; in the experiment on UACC-62 melanoma, 23.1 µM and 48.9 µM; with MCF7 breast it was 34.5 µM and 80.6 µM; in the experiment with HS 578T breast it was 15.8 µM; in the experiment on SR leukemia it was 1.74 µM. Further, the TGI in the experiment with KM12 colon is 20.1 µM and 17.6 µM; in the experiment with HL-60(TB) leukemia, 33.2 µM and 33.1 µM; in the experiment on EKVX NSCLC, 38.8 µM and 14.8 µM; in the experiment on A549 NSCLC, 30.6 µM and 43.6 µM; in the experiment on M14 melanoma it was 34.9 µM; in the experiment on SNB-75 CNS, 7.51 µM and 2.83 µM. Moreover, in the experiment on MDA-N, the TGI is 25.7 µM. In addition, the GI50 with SNB-19 CNS is 0.634 µM; in the experiment on UACC-62 melanoma it was 5.41 µM; in the experiment on MCF7 breast, 1.74 µM; in the experiment on KM12 colon, 3.72 µM; in the experiment with EKVX NSCLC, 2.03 µM; in the experiment on A549 NSCLC, 1.5 µM. The GI50 with SNB-75 CNS was 0.523 µM.

For the compound `CCOC(=O)Cn1c2ccc(Br)cc2c2nc3ccccc3nc21`, the concentration for total growth inhibition (TGI) with T-47D breast, in the experiment with SNB-19 CNS, in the experiment with UACC-62 melanoma, in the experiment with HS 578T breast, in the experiment on SR leukemia and with KM12 colon was more than 100 µM each time. Besides, the TGI with A549 NSCLC, with M14 melanoma, in the experiment with SNB-75 CNS and in the experiment with MDA-N was more than 100 µM in each case.

Take `Cc1c(/C=N/NC(=S)Nc2ccc(Cl)cc2)c(=O)n(-c2ccccc2)n1C`: the total growth inhibition concentration (TGI) with T-47D breast is more than 83.9 µM; in the experiment on SNB-19 CNS, more than 60.8 µM; with UACC-62 melanoma, more than 79 µM; with MCF7 breast it was more than 54.9 µM; with HS 578T breast, 50.8 µM; in the experiment with SR leukemia, more than 100 µM. In addition, the TGI in the experiment with KM12 colon was 99.4 µM; in the experiment with HL-60(TB) leukemia, more than 100 µM; in the experiment on EKVX NSCLC, more than 65.2 µM; in the experiment on A549 NSCLC it was more than 95.9 µM; in the experiment with M14 melanoma it was more than 100 µM; in the experiment on SNB-75 CNS it was 35.8 µM. The same compound had a TGI in the experiment on MDA-N of more than 100 µM.

As for `Clc1cc(Cl)c2cc3cccc[n+]3cc2c1Cl`, the concentration for total growth inhibition (TGI) came to 23.9 µM in the experiment with T-47D breast; 28.7 µM with SNB-19 CNS; 32.7 µM in the experiment with UACC-62 melanoma; 31.9 µM in the experiment with MCF7 breast; 38.7 µM with HS 578T breast; 32.9 µM in the experiment with SR leukemia. The TGI worked out at 29.7 µM with HL-60(TB) leukemia; 30.8 µM in the experiment on EKVX NSCLC; 34.1 µM in the experiment on A549 NSCLC; 39 µM in the experiment on M14 melanoma; 24.7 µM with SNB-75 CNS; 32.8 µM in the experiment on MDA-N.

For `Cc1cc2c(c(O)c1-c1c(C)cc(O)c3c1C(=O)C=CC3=O)C(=O)C=CC2=O`, the TGI was 3.67 µM in the experiment on T-47D breast; more than 56.8 µM in the experiment with SNB-19 CNS; 4.98 µM in the experiment on UACC-62 melanoma; 32.9 µM in the experiment with HS 578T breast; 0.265 µM with SR leukemia; 32.9 µM in the experiment on KM12 colon. The TGI was 52.4 µM in the experiment with A549 NSCLC, more than 100 µM in the experiment with M14 melanoma, 84.9 µM with SNB-75 CNS and 4.03 µM with MDA-N.

In the case of `CCCCCCCCCCCCCC1=C(O)C(=O)C(CC2=C(O)C(=O)C(CCCCCCCCCCCCC)=C(O)C2=O)=C(O)C1=O`, the TGI with T-47D breast is more than 100 µM; in the experiment on SNB-19 CNS, 92.9 µM; in the experiment with UACC-62 melanoma, more than 100 µM; with MCF7 breast, more than 100 µM; with HS 578T breast, more than 100 µM; in the experiment with SR leukemia, more than 100 µM. The TGI in the experiment with KM12 colon is more than 100 µM; in the experiment on HL-60(TB) leukemia, more than 100 µM; with EKVX NSCLC, more than 100 µM; in the experiment with A549 NSCLC it was more than 100 µM; in the experiment on M14 melanoma, more than 100 µM; in the experiment with SNB-75 CNS, 83 µM. In addition, the TGI in the experiment on MDA-N was more than 100 µM.

As for `OC[C@H]1NC[C@@H](O)[C@@H](O)[C@H]1O`, the total growth inhibition concentration (TGI) in the experiment on T-47D breast, in the experiment with SNB-19 CNS, with UACC-62 melanoma, with MCF7 breast, in the experiment on HS 578T breast and in the experiment with SR leukemia was more than 100 µM throughout. The TGI in the experiment on KM12 colon, in the experiment with M14 melanoma, with SNB-75 CNS and in the experiment on MDA-N was more than 100 µM in each case.

With `CC(C)(C)OC(=O)N1C(OP(=O)(Oc2ccccc2)Oc2ccccc2)=CSc2ccccc21`, the TGI with T-47D breast, with SNB-19 CNS, in the experiment with UACC-62 melanoma, in the experiment on MCF7 breast, in the experiment with HS 578T breast and in the experiment with SR leukemia was more than 100 µM each time. The concentration for total growth inhibition (TGI) was more than 100 µM in the experiment with KM12 colon; 43.1 µM in the experiment on HL-60(TB) leukemia; more than 100 µM in the experiment on EKVX NSCLC; more than 100 µM with A549 NSCLC; 68.6 µM with M14 melanoma; more than 100 µM in the experiment with SNB-75 CNS. Also, the TGI in the experiment with MDA-N was more than 100 µM.

For `COc1cc(/C=N/c2nc3cc4sc(/N=C/c5cc(OC)c(OC)c(OC)c5)nc4cc3s2)cc(OC)c1OC`, the TGI in the experiment on T-47D breast, with SNB-19 CNS, in the experiment with UACC-62 melanoma, in the experiment with MCF7 breast, with HS 578T breast and in the experiment on SR leukemia was more than 100 µM throughout. Besides, the TGI in the experiment on KM12 colon, in the experiment with HL-60(TB) leukemia, in the experiment with EKVX NSCLC, with A549 NSCLC, with M14 melanoma and in the experiment on SNB-75 CNS was more than 100 µM in each case. The compound further yielded a TGI with MDA-N of 81.7 µM.

For the compound `CC1(CO)COS(=O)OC1` (stereo not given), the TGI with T-47D breast, in the experiment with SNB-19 CNS, with MCF7 breast, in the experiment with HS 578T breast, in the experiment with SR leukemia and in the experiment on KM12 colon was more than 100 µM in each case. The TGI with A549 NSCLC, with SNB-75 CNS and in the experiment with MDA-N was more than 100 µM in each case.

With `CON(C)C(=O)[C@H]1C[C@@]1(C)CO`, the TGI with T-47D breast, with SNB-19 CNS, in the experiment with UACC-62 melanoma, in the experiment on MCF7 breast, with HS 578T breast and in the experiment on SR leukemia was more than 100 µM throughout. The concentration for total growth inhibition (TGI) in the experiment on KM12 colon, in the experiment with EKVX NSCLC, in the experiment with A549 NSCLC, with M14 melanoma, in the experiment on SNB-75 CNS and in the experiment with MDA-N was more than 100 µM each time.

As for `CN(Cc1cn(O)c2nc(=N)nc(N)c-2n1)c1ccc(C(=O)NC23CC4CC(CC(C4)C2)C3)cc1`, the TGI in the experiment with T-47D breast is more than 100 µM; in the experiment on SNB-19 CNS it was more than 100 µM; in the experiment with UACC-62 melanoma, more than 100 µM; in the experiment on MCF7 breast, more than 100 µM; in the experiment with HS 578T breast, 40.4 µM; in the experiment with SR leukemia, more than 100 µM. Moreover, the TGI with KM12 colon was more than 100 µM; with HL-60(TB) leukemia it was more than 100 µM; in the experiment with EKVX NSCLC, more than 100 µM; with M14 melanoma, more than 100 µM; with SNB-75 CNS, 76.2 µM; with MDA-N, more than 100 µM.

In the case of `Nc1[nH]c(=S)nc2nc3c(c(-c4ccccc4)c12)CCCC3`, the TGI in the experiment with T-47D breast, in the experiment on SNB-19 CNS, with UACC-62 melanoma, in the experiment on MCF7 breast, in the experiment on HS 578T breast and in the experiment with SR leukemia was more than 100 µM in each case. For the same compound, the TGI in the experiment with KM12 colon, in the experiment on HL-60(TB) leukemia, in the experiment on EKVX NSCLC, with A549 NSCLC, with M14 melanoma and with SNB-75 CNS was more than 100 µM each time. Besides, the TGI in the experiment on MDA-N was more than 100 µM.

With `C=C1C(=O)O[C@@H]2/C=C(\C)CC/C=C(\C)CC[C@@]12O`, the TGI with T-47D breast turned out to be 3.33 µM; in the experiment on SNB-19 CNS, 16.9 µM; in the experiment on UACC-62 melanoma, 23.6 µM; with MCF7 breast it was 14.5 µM; with HS 578T breast, 22.7 µM; in the experiment with SR leukemia it was 10.8 µM. For the same compound, the TGI was determined as 25 µM in the experiment with KM12 colon; 3.02 µM in the experiment on HL-60(TB) leukemia; 12.1 µM with EKVX NSCLC; 27.1 µM in the experiment with A549 NSCLC; 10.5 µM in the experiment on M14 melanoma; 6.42 µM with MDA-N.

Regarding `CNC1Cc2c[nH]c3cccc(c23)C12C=C(C)C(=O)O2` (stereo not given), the TGI with T-47D breast, in the experiment with SNB-19 CNS, in the experiment on UACC-62 melanoma, in the experiment on MCF7 breast, in the experiment with HS 578T breast and in the experiment with SR leukemia was more than 100 µM each time. Moreover, the TGI with KM12 colon, in the experiment with HL-60(TB) leukemia, in the experiment on EKVX NSCLC, in the experiment on A549 NSCLC, in the experiment on M14 melanoma and in the experiment with SNB-75 CNS was more than 100 µM in each case. For the same compound, the concentration for total growth inhibition (TGI) in the experiment on MDA-N was more than 100 µM.

Take `CC(C)CCCC(C)[C@H]1CC[C@H]2n3c(nc4ccccc43)CCC[C@]12C` (stereo not given in full): the TGI stood at 35.8 µM in the experiment on T-47D breast; 37.1 µM in the experiment with SNB-19 CNS; 30.8 µM in the experiment with UACC-62 melanoma; 28.5 µM with MCF7 breast; 63.8 µM in the experiment with HS 578T breast; 37.2 µM in the experiment on SR leukemia. Also, the TGI in the experiment on KM12 colon was 52.5 µM; with HL-60(TB) leukemia, 32.3 µM; in the experiment on A549 NSCLC, 50.3 µM; with M14 melanoma, 35.4 µM; with SNB-75 CNS, 29.3 µM; in the experiment on MDA-N, 32.4 µM.
